biological target: T1, Src tyrosine kinase (p60^c-src) (Homo sapiens, UniProt P12931); test: Src tyrosine kinase inhibition (α-screen phosphotyrosine assay); format: biochemical; details: 30 ng/ml p60^c-src, 100 ng/ml biotin-labeled poly(Glu:Tyr=4:1), 2 μM ATP, room temperature 10 minutes; value given only as order of magnitude; read-out: IC50 (concentration required for 50% inhibition of the enzyme activity)
T1 construct: purchased Upstate Biotechnology, Inc
Description: Inhibition activity of the test compound for Src tyrosine kinase was measured by the method described as below. p60^c-src (a preparation purified partically, purchased from Upstate Biotechnology, Inc.) was usded as an enzyme. A biotin-labeled polypeptide (co-polymer of glutamic acid and tyrosine, glutamic acid:tyrosine=4:1, purchased from Nihon Schering K. K. (Japan), prepared by CIS Bio International) was used as a substrate. A solution having composition of 50 mM Tris-HCl (pH 7.5), 5 mM of MgCl2, 5 mM of MnCl2, 2 mM of dithiothreitol, 0.01% of Tween-20 was used as a buffer solution for measuring the activity of tyrosine-kinase. The amount of phosphorylation of tyrosine in the substrate after the reaction was measured by the method using phosphotyrosine recognition antibody. In the concrete, α-screen phosphotyrosine (p-tyr-100) assay kit (manufactured by PerkinElmer, Inc.) was used. Fusion™ (manufactured by PerkinElmer, Inc.) was used as a plate reader. The test compound was dissolved in dimethylsulfoxide, and diluted with the above-mentioned buffer solution for measuring the activity of tyrosine-kinase. To 5 μl of the solution of test compound was added 10 μl of a buffer solution containing 75 ng/ml of the enzyme (p60 ^c-src) and 250 ng/ml of the substrate (biotin-labeled polypeptide), and then added 10 μl of a buffer solution containing 5 μM ATP, and then the tyrosine-kinase reaction was initiated. Accordingly the tyrosine-kinase reaction was meant by a kinase reaction in a solution containing the test compound having designated concentration, 30 ng/ml of p60^c-src, 100 ng/ml of polypeptide, 2 μM of ATP, 50 mM of Tris-HCl (pH 7.5), 5 mM of MgCl2, 5 mM of MnCl2, 2 mM of dithiothreitol and 0.01% of Tween-20, and the amount of the reaction liquid was 25 μl. After the reaction was continued at room temperature for 10 minutes, the kinase reaction was terminated by adding 25 μl of a solution containing 100 mM of EDTA-2 sodium salt (Ethylene Diamine Tetraacetic Acid, disodium salt), 62.5 mM of HEPES (pH 7.4), 250 mM of NaCl, 0.1% of Bovine Serum Albumin, 10 μg/ml of streptavidine donor beads for α-screen assay, 10 μg/ml of acceptor beads binding anti-phosphotyrosin recognition antibody PY-100 for α-screen assay (Anti-phosphotyrisine(P-Tyr-100) Acceptor beads), and then the binding reaction between phosphotyrosine recognition antibody and phosphorylating tyrosine was continued at room temperature for 16 hours, and then the amount of tyrosine phosphorylation was measured by using plate reader Fusion™.
Inhibition rate (%)=100-[(count of the test compound-blank)/(control-blank)]×100 […]

T1 sequence (P12931 whole entry): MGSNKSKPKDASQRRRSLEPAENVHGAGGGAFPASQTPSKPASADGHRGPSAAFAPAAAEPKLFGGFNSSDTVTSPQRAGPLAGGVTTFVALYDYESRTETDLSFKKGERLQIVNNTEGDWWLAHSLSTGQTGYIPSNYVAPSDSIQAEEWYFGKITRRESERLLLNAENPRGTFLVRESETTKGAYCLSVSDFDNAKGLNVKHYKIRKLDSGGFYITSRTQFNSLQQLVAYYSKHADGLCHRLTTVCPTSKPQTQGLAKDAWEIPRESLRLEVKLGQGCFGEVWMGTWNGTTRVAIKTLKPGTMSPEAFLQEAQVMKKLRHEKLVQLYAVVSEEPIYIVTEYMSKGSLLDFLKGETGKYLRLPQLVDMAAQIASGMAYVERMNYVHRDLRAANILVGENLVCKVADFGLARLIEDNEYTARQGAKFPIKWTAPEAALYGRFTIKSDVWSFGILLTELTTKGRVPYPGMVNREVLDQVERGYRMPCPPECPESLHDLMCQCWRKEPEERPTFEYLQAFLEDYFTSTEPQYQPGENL

Row | IC50 [nM] | SMILES
1 | ~1 | Nc1c2c(=O)[nH]c3ccccc3c2nn1-c1cc(O)ccc1Cl [Example 38, 3-amino-2-(2-chloro-5-hydroxyphenyl)-2,5-dihydro-4H-pyrazolo[4,3-c]quinolin-4-one]
2 | ~1 | Nc1c2c(=O)[nH]c3cc(NCCCN4CCC(O)CC4)ccc3c2nn1-c1cccc(O)c1 [Example 61, 3-amino-2-(3-hydroxyphenyl)-7-{[3-(4-hydroxy-1-piperidinyl)propyl]amino}-2,5-dihydro-4H-pyrazolo[4,3-c]quinolin-4-one]
3 | ~1 | Cc1ccc(O)cc1-n1nc2c(c1N)c(=O)[nH]c1ccccc12 [Example 37, 3-amino-2-(5-hydroxy-2-methylphenyl)-2,5-dihydro-4H-pyrazolo[4,3-c]quinolin-4-one]
4 | ~1 | Nc1c2c(=O)[nH]c3cc(NCCCN4CCOCC4)ccc3c2nn1-c1cccc(O)c1 [Example 62, 3-amino-2-(3-hydroxyphenyl)-7-{[3-(4-morpholinyl)propyl]amino}-2,5-dihydro-4H-pyrazolo[4,3-c]quinolin-4-one]

Source: patent US7842701B2, “Pyrazoloquinolone derivative and use thereof” (Takeda Pharmaceutical Company Limited, priority 2004, dated 2010)
